Experimental data taken from article PMC10536928, “Discovery of New Pyrrolo[2,3-d]pyrimidine Derivatives as Potential Multi-Targeted Kinase Inhibitors and Apoptosis Inducers” (Pharmaceuticals, 2023).

How the values were obtained:
[1] = target: T1, CDK2 (Homo sapiens, UniProt P24941); assay: In vitro protein kinase inhibition assay (ELISA kit); format: biochemical; conditions: triplicate
T1 construct: purchased
Method: (§1) In accordance with the documented procedures, fifteen derivatives of the synthesized compounds were evaluated for their inhibitory effects on EGFR, VEGFR-2, Her2, and CDK2 using specific human ELISA kits (Enzyme-Linked Immunosorbent Assay) designed for each respective kinase enzyme. Initially, various concentrations of the synthesized compounds were combined with specific antibodies for each enzyme in individual wells of a 96-well plate, followed by incubation at room temperature for 2.5 h. Subsequently, the plate was washed, and a biotin antibody (100 µL), prepared in-house, was added and allowed to incubate at ambient temperature for 1 h. After another washing step, a solution of streptavidin (100 µL) was introduced to each well and left for 45 min at room temperature. Following a third round of washing, a TMB Substrate (100 µL) reagent was applied to all wells and incubated for 30 min at room temperature. Finally, the reaction was terminated by adding 50 µL of a stop solution, and the absorbance was directly measured at 450 nm. A standard curve was constructed, illustrating the relationship between concentration (X-axis) and absorbance (Y-axis).

[2] = target: T2, EGFR (Homo sapiens, UniProt P00533); assay: as above; format: biochemical; conditions: triplicate
T2 construct: purchased
T2 sequence (P00533 25-1210): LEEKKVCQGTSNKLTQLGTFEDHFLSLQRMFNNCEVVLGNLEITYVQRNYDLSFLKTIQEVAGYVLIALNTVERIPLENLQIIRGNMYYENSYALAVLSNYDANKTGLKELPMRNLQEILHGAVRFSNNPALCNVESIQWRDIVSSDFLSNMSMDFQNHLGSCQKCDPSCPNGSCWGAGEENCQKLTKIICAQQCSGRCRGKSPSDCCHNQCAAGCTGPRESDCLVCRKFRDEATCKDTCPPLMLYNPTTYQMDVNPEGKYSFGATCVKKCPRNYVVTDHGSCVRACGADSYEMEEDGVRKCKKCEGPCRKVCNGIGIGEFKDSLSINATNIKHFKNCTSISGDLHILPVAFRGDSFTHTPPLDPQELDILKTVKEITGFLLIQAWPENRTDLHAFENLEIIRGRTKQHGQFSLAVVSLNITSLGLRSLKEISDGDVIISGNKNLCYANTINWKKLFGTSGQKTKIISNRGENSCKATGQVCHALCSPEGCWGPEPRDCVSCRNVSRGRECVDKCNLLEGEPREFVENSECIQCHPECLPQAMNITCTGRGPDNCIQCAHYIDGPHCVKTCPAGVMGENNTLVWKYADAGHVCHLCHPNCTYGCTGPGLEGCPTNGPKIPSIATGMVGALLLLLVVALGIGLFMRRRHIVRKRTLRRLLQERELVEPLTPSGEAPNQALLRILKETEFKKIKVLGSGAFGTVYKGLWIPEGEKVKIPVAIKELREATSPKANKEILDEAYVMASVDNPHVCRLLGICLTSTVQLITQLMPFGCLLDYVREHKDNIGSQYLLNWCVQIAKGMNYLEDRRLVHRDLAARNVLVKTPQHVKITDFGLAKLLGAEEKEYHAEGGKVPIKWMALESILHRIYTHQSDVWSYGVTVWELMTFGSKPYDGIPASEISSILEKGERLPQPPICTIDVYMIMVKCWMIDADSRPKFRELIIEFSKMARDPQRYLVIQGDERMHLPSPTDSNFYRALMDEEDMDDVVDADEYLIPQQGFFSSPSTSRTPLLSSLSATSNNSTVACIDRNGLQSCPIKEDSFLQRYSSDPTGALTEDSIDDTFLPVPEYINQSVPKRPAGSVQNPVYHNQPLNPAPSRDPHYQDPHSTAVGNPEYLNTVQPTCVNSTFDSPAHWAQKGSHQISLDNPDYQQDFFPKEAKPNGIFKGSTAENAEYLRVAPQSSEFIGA
Method: as §1

[3] = target: T3, Her2 (Homo sapiens, UniProt P04626); assay: as above; format: biochemical; conditions: triplicate
T3 construct: purchased
T3 sequence (P04626 23-1255): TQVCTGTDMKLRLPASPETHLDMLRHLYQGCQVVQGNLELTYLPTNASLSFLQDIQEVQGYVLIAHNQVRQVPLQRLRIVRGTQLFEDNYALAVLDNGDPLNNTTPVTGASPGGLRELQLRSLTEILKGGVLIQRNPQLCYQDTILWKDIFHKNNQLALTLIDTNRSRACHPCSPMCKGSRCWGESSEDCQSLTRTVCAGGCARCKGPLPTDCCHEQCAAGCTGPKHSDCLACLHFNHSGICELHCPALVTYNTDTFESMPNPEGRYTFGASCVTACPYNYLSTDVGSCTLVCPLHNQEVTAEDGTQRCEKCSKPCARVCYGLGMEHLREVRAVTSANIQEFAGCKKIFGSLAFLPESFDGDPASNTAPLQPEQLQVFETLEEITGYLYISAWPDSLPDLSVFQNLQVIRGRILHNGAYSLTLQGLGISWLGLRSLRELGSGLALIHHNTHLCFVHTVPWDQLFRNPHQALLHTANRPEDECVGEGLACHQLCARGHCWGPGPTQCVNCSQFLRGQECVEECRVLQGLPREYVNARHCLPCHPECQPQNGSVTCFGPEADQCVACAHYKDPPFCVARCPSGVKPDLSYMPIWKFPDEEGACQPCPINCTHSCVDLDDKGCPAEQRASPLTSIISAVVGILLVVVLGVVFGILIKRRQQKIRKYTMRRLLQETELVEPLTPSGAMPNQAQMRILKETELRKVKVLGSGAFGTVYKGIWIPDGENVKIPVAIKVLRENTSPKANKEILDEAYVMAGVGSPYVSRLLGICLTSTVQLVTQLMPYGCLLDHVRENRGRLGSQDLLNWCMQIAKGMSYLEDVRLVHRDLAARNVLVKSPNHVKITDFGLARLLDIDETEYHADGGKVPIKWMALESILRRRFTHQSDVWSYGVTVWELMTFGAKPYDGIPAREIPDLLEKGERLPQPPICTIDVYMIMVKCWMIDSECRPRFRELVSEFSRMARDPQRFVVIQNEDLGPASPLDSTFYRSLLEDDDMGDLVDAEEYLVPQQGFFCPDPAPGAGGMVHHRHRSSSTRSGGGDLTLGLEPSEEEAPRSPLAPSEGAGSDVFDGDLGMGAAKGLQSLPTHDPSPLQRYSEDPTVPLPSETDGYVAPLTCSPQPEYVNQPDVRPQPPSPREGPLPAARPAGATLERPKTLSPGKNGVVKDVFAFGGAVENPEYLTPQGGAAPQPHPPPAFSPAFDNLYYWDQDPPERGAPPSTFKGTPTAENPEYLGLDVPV
Method: as §1

[4] = target: T4, VEGFR2 (Homo sapiens, UniProt P35968); assay: as above; format: biochemical; conditions: triplicate
T4 construct: purchased
T4 sequence (P35968 20-1356): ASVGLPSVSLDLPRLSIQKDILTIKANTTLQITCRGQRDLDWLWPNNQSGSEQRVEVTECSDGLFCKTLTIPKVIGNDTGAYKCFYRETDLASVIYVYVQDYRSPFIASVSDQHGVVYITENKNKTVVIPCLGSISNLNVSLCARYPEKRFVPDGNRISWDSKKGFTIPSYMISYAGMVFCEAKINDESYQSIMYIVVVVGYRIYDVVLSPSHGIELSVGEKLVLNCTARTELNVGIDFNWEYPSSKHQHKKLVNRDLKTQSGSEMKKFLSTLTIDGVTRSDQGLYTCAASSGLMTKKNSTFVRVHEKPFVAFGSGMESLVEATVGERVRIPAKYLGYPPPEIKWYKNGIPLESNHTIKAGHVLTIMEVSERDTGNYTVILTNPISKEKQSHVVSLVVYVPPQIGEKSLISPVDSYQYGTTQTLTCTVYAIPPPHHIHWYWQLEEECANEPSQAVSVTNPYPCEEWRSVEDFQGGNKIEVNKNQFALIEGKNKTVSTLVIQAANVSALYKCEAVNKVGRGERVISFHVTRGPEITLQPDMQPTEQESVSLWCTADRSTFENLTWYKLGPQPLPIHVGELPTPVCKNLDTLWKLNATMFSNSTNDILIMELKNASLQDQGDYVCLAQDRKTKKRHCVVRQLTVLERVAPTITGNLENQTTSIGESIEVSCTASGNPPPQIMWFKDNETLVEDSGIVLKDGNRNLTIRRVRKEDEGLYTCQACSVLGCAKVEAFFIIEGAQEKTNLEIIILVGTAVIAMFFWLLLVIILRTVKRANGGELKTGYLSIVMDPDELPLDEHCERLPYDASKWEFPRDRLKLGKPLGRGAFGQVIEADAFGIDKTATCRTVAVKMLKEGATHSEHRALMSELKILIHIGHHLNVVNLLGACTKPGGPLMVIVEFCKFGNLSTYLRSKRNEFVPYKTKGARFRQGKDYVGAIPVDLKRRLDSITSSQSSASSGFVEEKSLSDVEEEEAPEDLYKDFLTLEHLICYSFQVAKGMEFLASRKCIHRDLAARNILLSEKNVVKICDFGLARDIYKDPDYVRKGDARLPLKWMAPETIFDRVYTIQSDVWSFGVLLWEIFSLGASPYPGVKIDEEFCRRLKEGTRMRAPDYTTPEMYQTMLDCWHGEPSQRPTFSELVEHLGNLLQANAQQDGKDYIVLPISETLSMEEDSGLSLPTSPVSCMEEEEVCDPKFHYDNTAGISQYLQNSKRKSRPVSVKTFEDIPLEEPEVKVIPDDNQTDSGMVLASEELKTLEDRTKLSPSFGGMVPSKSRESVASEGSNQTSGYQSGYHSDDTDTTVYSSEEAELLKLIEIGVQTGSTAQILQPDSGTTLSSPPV
Method: as §1

[5] = test system: HepG2 cells; assay: Annexin-V/propidium iodide double staining assay; format: cell-based; conditions: compound at its IC50, 24 h
Method: To investigate the type of cell death induced by compound 5k, flow cytometry analysis was conducted. […] Subsequently, the cells were double stained with Annexin V and propidium iodide (PI). […] Apoptosis is a process of programmed cell death that occurs naturally in the body, while necrosis is a type of cell death that occurs due to damage or injury to the cell. […] In the early stage of the experiment, the percentage of apoptotic cells was 0.51% in the control group and 15.63% in the 5k treated group. In the late stage, the percentage of apoptotic cells was 0.29% in the control group and 9.74% in the 5k treated group.
In contrast, the percentage of necrotic cells was also higher in the 5k treated group compared to the control group. The percentage of necrotic cells was 1.58% in the control group and 4.17% in the 5k treated group. […] Further studies are needed to determine the underlying mechanisms of this effect and to assess the potential therapeutic applications of compound 5k in the treatment of diseases involving abnormal cell death.
To investigate the apoptotic effects of the synthesized compound 5k, HepG2 cells were cultured in triplicate at a density of 2.0 × 10^5 cells per well. Subsequently, the cells were treated with the selected compounds at their respective IC50 values determined by the MTT assay. After 24 h, the cells were detached using trypsin, collected, and then centrifuged. Following two washes with PBS, the cells were resuspended in 0.1 mL of binding buffer. Dual staining was performed by adding Annexin V-FITC (5 µL) and propidium iodide (5 µL) to the cell suspension, which was then incubated in the dark for 15 min at room temperature. Flow cytometry analysis was performed using the Epics XL-MCL™ flow cytometry equipment (Beckman Coulter, Apeldoorn, The Netherlands) with an excitation wavelength of 488 nm and an emission wavelength of 530 nm. Finally, the experimental results were analyzed using flowing “Turku Centre for Biotechnology” software, version 2.5.1 (Turku, Finland).

[6] = test system: Bax; assay: Apoptotic protein levels assay (ELISA) in HepG2 cells; format: cell-based
Description: (§2) To validate the mechanism of cell death and the induction of apoptosis caused by compound 5k, the expression levels of some apoptotic proteins were investigated. […] Specifically, the levels of caspase-3 (6.9 folds higher than the control) and Bax (2.6 folds higher than the control) were higher in the group treated with 5k compared to the control group. Caspase-3 is a key enzyme involved in the execution of apoptosis, while Bax is a pro-apoptotic protein that promotes cell death. […] Bcl-2 is a protein that inhibits apoptosis, so the lower levels of Bcl-2 in the 5k treated group further support the notion that treatment with 5k may induce apoptosis in HepG2 cells. […] These findings may have implications for the development of novel therapies for diseases involving abnormal cell death, including cancer. Further studies are warranted in order to elucidate the underlying mechanisms of action of compound 5k and to assess its potential therapeutic applications.
(§3) The ELISA technique was employed to assess the impact of compound 5k on the alteration of protein levels associated with caspase-3, BAX, and Bcl-2. Specifically, the following ELISA kits were utilized: KHO1091 (InvitrogenTM, Grand Island, NY, USA) for caspase-3, EIA-4860 and EIA-4487 for BAX, (DRU International INC., Mountainside, NJ, USA), and 99-0042 (InvitrogenTM, Grand Island, NY, USA) for Bcl-2 for the respective measurements. The experimental procedures were conducted according to the instructions provided by the manufacturers and our recently published article. Initially, HepG2 cells were cultured in triplicate in 96-well plates. Following a 24-h incubation period, the cells were subjected to various concentrations of compound 5k, while a control group was treated with 0.1% DMSO (V/V). After an additional 24-h incubation, the absorbance levels were assessed using a BioTek Synergy H1 Multi-mode Reader (Agilent Technologies, Santa Clara, CA, USA) at wavelengths ranging from 450 to 650 nm.

[7] = test system: Bcl-2; assay: as above; format: cell-based
Description: as §2, §3

[8] = test system: caspase-3; assay: as above; format: cell-based
Description: as §2, §3

[9] = test system: epithelioid cervix carcinoma (HeLa); assay: MTT cytotoxicity assay; format: cell-based; conditions: Homo sapiens, 24 h exposure, mean ± SD of triplicate

With `O=C(N/N=C/c1ccc(Cl)c(Cl)c1)c1ccc(Nc2ncnc3[nH]ccc23)cc1` [Compound 5k, (E)-4-((7H-Pyrrolo[2,3-d]pyrimidin-4-yl)amino)-N’-(3,4-dichlorobenzylidene)benzohydrazide] the IC50 [1] was 204 nM, the IC50 [2] was 79 nM and the IC50 [3] was 40 nM. The IC50 [4] was 136 nM, the “Apoptosis Late” value ([5]; control 0.29) was 9.74% and the “Apoptosis Early” value ([5]; control 0.51) was 15.63%. For the same compound, the Necrosis ([5]; control 1.58) was 4.17%, the “Bax level, folds higher than the control” value [6] was 2.6 folds and the “Protein Expression (Pg/mL) Bax” value ([6]; 24 h, ELISA, control 67.09 ± 4.94) was 173.8 ± 6.61 pg/mL. For the same compound, the “Bcl-2 level relative to the control” value [7] was “two-fold lower than the control”, the “Protein Expression (Pg/mL) Bcl-2” value ([7]; 24 h, ELISA, control 11.7 ± 0.36) was 5.146 ± 0.09 pg/mL and the “caspase-3 level, folds higher than the control” value [8] was 6.9 folds. The “Protein Expression (Pg/mL) Caspase-3” value ([8]; 24 h, ELISA, control 66.28 ± 4.66) was 453.8 ± 17.4 pg/mL and the IC50 [9] was 57.8 ± 3.1 µM.
